Data reported in patent US9872870B2, “Multifunctional micellar nanoparticle-based drug and targeting agent system” (University of Notre Dame du Lac, priority 2011, dated 2018).

What was measured:
NCI-H929 MM cells = experiment: Cytotoxicity assay (Cell Counting Kit-8); format: cell-based, human; conditions: Dox equivalents
Procedure: To determine cytotoxicity in the presence of fibronectin, MM cells were plated on fibronectin coated plates (40 μg/ml), in adhesion buffer, for 1 h. […] BSA coated plates were used as controls.

NCI-H929 cells [1] = experiment: Cytotoxicity on fibronectin or BSA coated plates (CAM-DR)
Procedure: Cytotoxicity assays: Cytotoxicity was determined using Cell Counting Kft-8 (Dojindo) as previously described. […] In all cases, cell viability was assessed by cell counting kit-8 (CCK-8), and data represent means (±SD) of triplicate cultures.
Cell viability was assessed by cell counting kit-8 (CCK-8), and data represent means (±SD) of triplicate cultures.

NCI-H929 cells [2] = experiment: DNA double strand breaks and apoptosis (western blot, immunocytochemistry, Annexin V); format: cell-based, human; conditions: 250 nM Dox equivalents, 0-48 h
Procedure: It is well established that Dox induces DNA double strand breaks (DSBs) and apoptosis of cancer cells. An early specific cellular response to DSBs in mammalian cells is the phosphorylation of the histone protein H2AX (γ-H2AX), with respective foci formation. Therefore, we examined whether free Dox and NPDox/VLA-4-pep triggered similar signaling cascades of DNA damage and apoptosis in MM cells. […] Phosphorylation of DNA damage response protein H2AX at Ser139 was assayed by western blotting (FIG. 10a). Respective H2AX foci formation was assayed by immunocytochemistry (FIG. 10b). Apoptosis was assessed by flow cytometry following Annexin V-FITC staining (FIG. 10c), and by western blotting for PARP cleavage and caspase-8 and caspase-9 activation (FIG. 10d).
For immunocytochemistry analysis, cytospins of drug-treated cells were prepared on glass slides and fixed with 4% paraformaldehyde. Slides were blocked with 5% goat serum, incubated with y-H2AX antibody (Cell Signaling) overnight at 4° C., and then with AlexaFluor-488-labelled Fab2 (Molecular Probes). Coverslips were then mounted on the glass slides with VectaShield antifade/DAR (Vector Labs) and analyzed by Nikon Eclipse TS100 fluorescence microscope at 60×/0.5-1.25 oil, with a Nikon Infinity camera. For flow cytometric analysis, data represent means (±SD) of triplicate experiments. For western blotting, representative images are shown, and all antibodies were purchased from Cell Signaling.

[3] = test system: NCI-H929 subcutaneous xenograft; experiment: Subcutaneous xenograft model of MM, tumor growth; format: in vivo, CB.17 SCID mice; conditions: 6 mg/kg Dox equivalents iv on days 1, 3 and 5
Procedure: (§1) To validate the therapeutic efficacy of multifunctional nanoparticles, CB.17 SCID mice (Harlan Laboratories) were irradiated with 150 rad, and were inoculated subcutaneously with 5×10^6 NCI-H929 cells. […] When the tumors were palpable, each mouse was injected with the drug, intravenously, on days 1, 3, and 5. […] Animals were monitored for body weight and tumor volume by caliper measurements. Tumor growth inhibition was detected by caliper measurements (left). Data shown are means (±SE) of n=6-8 per treatment group. Statistical comparisons of continuous variables were carried out by Student's two-tailed t-test and were considered significant when P<0.05.
(§2) For determination of systemic toxicity, 3 additional mice from each group were sacrificed on day 5 before any lethality was observed. Organ weights were measured. For complete blood count analysis, 200 μl of blood was drawn from each mouse via cardiac puncture, immediately mixed with 50 μl of Sequester Solution (Cambridge Diagnostic Products), and was analyzed with the HemaVet950 (Drew Scientific). Immunohistochemical staining of excised tumors for caspase-3 was performed as previously described.
Three mice from each group were dissected on day 5 and tumors were stained for activated caspase-3. Representative images of tumor cross-sections that were captured using a Nikon Eclipse TS100 microscope at 20× magnification are shown.

[4] = Systemic toxicity in tumor bearing mice (body weight, lethality, blood count, organ weights, histopathology); format: in vivo, CB.17 SCID mice
Procedure: as §1, §2
To evaluate systemic toxicity, analysis of complete blood cell count, which is highly susceptible to chemotherapeutic agents, was performed. Three mice from each group were dissected on day 5, and complete blood count (white blood cell, red blood cell, and thrombocyte) was performed (FIG. 12e). Data represents means (±SE). *P<0.05, when compared to free Dox group.

SMILES: COc1cccc2c1C(=O)c1c(O)c3c(c(O)c1C2=O)C[C@@](O)(C(=O)CO)C[C@@H]3O[C@H]1C[C@H](N)[C@H](O)[C@H](C)O1 [free Dox, doxorubicin]
- IC50 (NCI-H929 MM cells; NCI-H929, 48 h): 190 ± 40 nM
- IC50 (NCI-H929 MM cells; NCI-H929, 72 h): ~130 nM
- IC50, cytotoxicity in the presence of fibronectin (NCI-H929 cells [1]): 0.421-0.09 μM
- IC50 shift caused by adhesion to fibronectin (CAM-DR) (NCI-H929 cells [1]; fibronectin vs BSA coated plates, 72 h): 3 fold
- H2AX phosphorylation (NCI-H929 cells [2]): induced H2AX phosphorylation
- apoptosis (annexin V, PARP and caspase-8 activation) (NCI-H929 cells [2]): induced apoptosis
- caspase-9 activation (NCI-H929 cells [2]): No significant caspase-9 activation
- tumor growth inhibition [3]: dramatic tumor growth inhibition
- lethality ([4]; 6 mg/kg Dox equivalents iv on days 1, 3 and 5): lethality of all mice on day 7
- body weight loss ([4]; 6 mg/kg iv on days 1, 3 and 5): significant loss of body weight
- liver mass loss and histopathology ([4]; day 5): moderate hepatocellular hypertrophy and degeneration
- spleen mass loss and histopathology ([4]; day 5): severe fibrosis
